Reference: patent publication US20250011873A1, “ENDOCRINE TREATMENT OF HORMONE RECEPTOR POSITIVE BREAST CANCER TYPED AS HAVING A LOW RISK OF RECURRENCE” (Agendia N.V., priority 2021, published 2025)

Legend:
[1] = tested on: early-stage ER positive breast cancer; conditions: tamoxifen for five years; during the treatment period; cited from earlier work
[2] = tested on: hormone-receptor (+) breast cancer; assay: NSABP B-42 randomized, double-blinded, placebo-controlled trial of extended adjuvant letrozole, analysed by MammaPrint risk group; assay type: in vivo, human; conditions: for HR, DFS: B-42 primary endpoint; for 10-year rate (%), letrozole arm (DFS rows: disease-free survival rate; DR/BCFI rows: event rate) / # Events (Letrozole): letrozole arm; for Abs. benefit (%): 10-year
Text: NSABP B42 (Mamounas et al., 2019. Lancet Oncol 20: 88-99) refers to a randomized, double-blinded, placebo-controlled clinical trial of extended adjuvant endocrine therapy (tx) with letrozole (L) in postmenopausal women with hormone-receptor (+) breast cancer (BC) who have completed previous adjuvant tx with an aromatase inhibitor (AI). A pre-treatment gene expression biomarker such as MammaPrint may identify breast cancers at risk of recurrence in years 5 to 10 after diagnosis, for whom EET will be beneficial.
The MammaPrint test uses the expression levels of 70 genes to assess a patient's risk of recurrence. For the primary analysis, patient tumor samples were classified into a High Risk or Low Risk group by the 0.00 threshold in the MammaPrint index (high up to and low above 0.00 index, respectively). Recently, a subgroup of ultralow tumors is defined by MammaPrint index>+0.355 (Esserman et al., 2017. JAMA Oncol 3: 1503-1510).
Population for all analyses was based on the intention-to-treat (ITT) principle: patients were analyzed according to their randomized treatment, regardless of what they actually receive. This ensures the strengths of randomization are kept (an equal balance of potential prognostic factors between both groups), but it estimates the treatment effect in clinical practice.
Within the total study population and within each treatment arm, univariate Cox Regression Analysis were performed for MammaPrint risk groups and all available clinical, pathological, therapeutic variables. Summary statistics from the Cox model included the number of patients analyzed, hazard ratio (with 95% confidence interval (CI)) of the comparison and the according p-value. A p-value less than 0.05 (two sided) was considered statistically significance.
Differences in primary and secondary endpoints between placebo and letrozole groups were assessed by stratified log-rank tests. Stratification factors included original stratification factors from the parent B-42 trial, i.e., pathological node status at diagnosis (negative vs positive), prior tamoxifen use (no vs yes), and lowest bone mineral density T score in the lumbosacral spine, total hip, or femoral neck (≤−2.0 or >−2.0 SD).
Multivariate Cox Regression Analysis were utilized to examine the interaction between EET treatment and MP Risk index. Secondary elaborated multivariate analyses were performed to examine interaction with MammaPrint, EET treatment and any clinical and pathologic variable. Summary statistics from these Cox models include the number of patients analyzed, hazard ratios (with 95% CI) of the comparisons and the according p-values.
The following event variables were used for appropriate analyses: • Distant Recurrence (DR): yes vs. no • Time to DR: continuous months • Overall Survival (OS): yes vs. no • Time to Death: continuous months • Disease Free Survival (DFS): yes vs. no • Time to DFS: continuous months • Breast Cancer Free Interval (BCFI): yes vs. no • Time to BCFI: continuous months
A Kaplan-Meier curve with corresponding Log-rank test was used to visualize the survival distribution function for each MammaPrint risk group. Cox PH models stratified by nodal status, prior tamoxifen use, and lowest bone mineral density T-score was used to explore the association among risk factors listed to survival outcomes. This was done for each treatment arm. Kaplan-Meier curves were also used to visualize the survival distribution function for each treatment group.
NSABP-B42 assessed the effect of 5 years of letrozole after 5 years of prior endocrine therapy in postmenopausal women with early stage hormone receptor positive (HR+) breast cancer. Randomization occurred five years after diagnosis.
There were 3,966 patients randomly assigned to placebo or letrozole. Among them, 63 were excluded due to either no clinical assessment or not being at risk for the primary DFS endpoint for the B-42 parent trial. Blocks were available for 2,339 patients who consented for future research. […]

[3] = tested on: hormone-receptor (+) breast cancer; conditions: cited from earlier work
[4] = BCFI, MP Risk Group H, letrozole vs placebo
[5] = BCFI, MP Risk Group L, letrozole vs placebo
[6] = BCFI, MP Risk Group LNUL, letrozole vs placebo
[7] = BCFI, MP Risk Group UL, letrozole vs placebo
[8] = DFS, MP Risk Group H, letrozole vs placebo
[9] = DFS, MP Risk Group L, letrozole vs placebo
[10] = DFS, MP Risk Group LNUL, letrozole vs placebo
[11] = DFS, MP Risk Group UL, letrozole vs placebo
[12] = DR, MP Risk Group H, letrozole vs placebo
[13] = DR, MP Risk Group L, letrozole vs placebo
[14] = DR, MP Risk Group LNUL, letrozole vs placebo
[15] = DR, MP Risk Group UL, letrozole vs placebo
[16] = all patients of the translational MP cohort, letrozole vs placebo

Compound: CC/C(=C(\c1ccccc1)c1ccc(OCCN(C)C)cc1)c1ccccc1 [tamoxifen]
- reduction of recurrence rate compared to placebo [1]: 50%

Compound: N#Cc1ccc(C(c2ccc(C#N)cc2)n2cncn2)cc1 [Letrozole, letrozole]
- HR, DFS ([2]; 6.9 years of median follow-up): 0.85
- HR, DFS ([2]; updated results, 10.3 years of median follow-up): 0.85
- reduction of distant recurrence (DR) in the letrozole arm ([2]; B-42 secondary endpoint): 28%
- 10-year rate (%), letrozole arm (DFS rows: disease-free survival rate; DR/BCFI rows: event rate) ([2]; BCFI, MP Risk Group H): 14.6%
- # Events (Letrozole) ([2]; BCFI, MP Risk Group H): 42
- HR (95% CI) [2, 4]: 1.15
- Abs. benefit (%) [2, 4]: −3.0%
- HR (95% CI) ([2]; BCFI, MP Risk Group H, letrozole vs placebo, listed as letrozole): 1.15 (0.74, 1.79)
- 10-year rate (%), letrozole arm (DFS rows: disease-free survival rate; DR/BCFI rows: event rate) ([2]; BCFI, MP Risk Group L): 8.4%
- # Events (Letrozole) ([2]; BCFI, MP Risk Group L): 44
- HR (95% CI) [2, 5]: 0.51
- Abs. benefit (%) [2, 5]: 7.0%
- HR (95% CI) ([2]; BCFI, MP Risk Group L, letrozole vs placebo, listed as letrozole): 0.51 (0.35, 0.74)
- 10-year rate (%), letrozole arm (DFS rows: disease-free survival rate; DR/BCFI rows: event rate) ([2]; BCFI, MP Risk Group LNUL): 8.7%
- # Events (Letrozole) ([2]; BCFI, MP Risk Group LNUL): 36
- HR (95% CI) [2, 6]: 0.48
- Abs. benefit (%) [2, 6]: 7.9%
- HR (95% CI) ([2]; BCFI, MP Risk Group LNUL, letrozole vs placebo, listed as letrozole): 0.48 (0.32-0.73)
- 10-year rate (%), letrozole arm (DFS rows: disease-free survival rate; DR/BCFI rows: event rate) ([2]; BCFI, MP Risk Group UL): 7.3%
- # Events (Letrozole) ([2]; BCFI, MP Risk Group UL): 8
- HR (95% CI) [2, 7]: 0.67
- Abs. benefit (%) [2, 7]: 4.1%
- HR (95% CI) ([2]; BCFI, MP Risk Group UL, letrozole vs placebo, listed as letrozole): 0.67 (0.28, 1.65)
- 10-year rate (%), letrozole arm (DFS rows: disease-free survival rate; DR/BCFI rows: event rate) ([2]; DFS, MP Risk Group H): 71.2%
- # Events (Letrozole) ([2]; DFS, MP Risk Group H): 91
- HR (95% CI) [2, 8]: 1.10
- Abs. benefit (%) [2, 8]: −1.6%
- HR (95% CI) ([2]; DFS, MP Risk Group H, letrozole vs placebo, listed as letrozole): 1.10 (0.82, 1.47)
- 10-year rate (%), letrozole arm (DFS rows: disease-free survival rate; DR/BCFI rows: event rate) ([2]; DFS, MP Risk Group L): 79.7%
- # Events (Letrozole) ([2]; DFS, MP Risk Group L): 113
- HR (95% CI) [2, 9]: 0.67
- Abs. benefit (%) [2, 9]: 7.8%
- HR (95% CI) ([2]; DFS, MP Risk Group L, letrozole vs placebo, listed as letrozole): 0.67 (0.52, 0.85)
- 10-year rate (%), letrozole arm (DFS rows: disease-free survival rate; DR/BCFI rows: event rate) ([2]; DFS, MP Risk Group LNUL): 78.9%
- # Events (Letrozole) ([2]; DFS, MP Risk Group LNUL): 93
- HR (95% CI) [2, 10]: 0.64
- Abs. benefit (%) [2, 10]: 9.5%
- HR (95% CI) ([2]; DFS, MP Risk Group LNUL, letrozole vs placebo, listed as letrozole): 0.64 (0.49, 0.83)
- 10-year rate (%), letrozole arm (DFS rows: disease-free survival rate; DR/BCFI rows: event rate) ([2]; DFS, MP Risk Group UL): 82.5%
- # Events (Letrozole) ([2]; DFS, MP Risk Group UL): 20
- HR (95% CI) [2, 11]: 0.82
- Abs. benefit (%) [2, 11]: 1.8%
- HR (95% CI) ([2]; DFS, MP Risk Group UL, letrozole vs placebo, listed as letrozole): 0.82 (0.45, 1.48)
- 10-year rate (%), letrozole arm (DFS rows: disease-free survival rate; DR/BCFI rows: event rate) ([2]; DR, MP Risk Group H): 4.9%
- # Events (Letrozole) ([2]; DR, MP Risk Group H): 15
- HR (95% CI) [2, 12]: 0.65
- Abs. benefit (%) [2, 12]: 2.4%
- HR (95% CI) ([2]; DR, MP Risk Group H, letrozole vs placebo, listed as letrozole): 0.65 (0.34, 1.24)
- 10-year rate (%), letrozole arm (DFS rows: disease-free survival rate; DR/BCFI rows: event rate) ([2]; DR, MP Risk Group L): 3.5%
- # Events (Letrozole) ([2]; DR, MP Risk Group L): 20
- HR (95% CI) [2, 13]: 0.43
- Abs. benefit (%) [2, 13]: 3.7%
- HR (95% CI) ([2]; DR, MP Risk Group L, letrozole vs placebo, listed as letrozole): 0.43 (0.25, 0.74)
- 10-year rate (%), letrozole arm (DFS rows: disease-free survival rate; DR/BCFI rows: event rate) ([2]; DR, MP Risk Group LNUL): 3.6%
- # Events (Letrozole) ([2]; DR, MP Risk Group LNUL): 17
- HR (95% CI) [2, 14]: 0.42
- Abs. benefit (%) [2, 14]: 4.0%
- HR (95% CI) ([2]; DR, MP Risk Group LNUL, letrozole vs placebo, listed as letrozole): 0.42 (0.23, 0.76)
- 10-year rate (%), letrozole arm (DFS rows: disease-free survival rate; DR/BCFI rows: event rate) ([2]; DR, MP Risk Group UL): 2.9%
- # Events (Letrozole) ([2]; DR, MP Risk Group UL): 3
- HR (95% CI) [2, 15]: 0.53
- Abs. benefit (%) [2, 15]: 3.0%
- HR (95% CI) ([2]; DR, MP Risk Group UL, letrozole vs placebo, listed as letrozole): 0.53 (0.13, 2.15)
- HR, rate of DR ([2]; Excluded B-42 cohort, letrozole vs placebo): 0.92
- HR, BCFI ([2]; MP-H subgroup, after 5.2 years (time-dependent analysis)): 2.77
- HR, BCFI ([2]; MP-H subgroup, prior to 5.2 years (time-dependent analysis)): 0.65
- HR, BCFI ([2]; MP-L subgroup, after 5.2 years (time-dependent analysis)): 0.37
- HR, BCFI ([2]; MP-L subgroup, prior to 5.2 years (time-dependent analysis)): 0.65
- HR, breast cancer-free interval [2, 16]: 0.70 (0.53, 0.93)
- HR, disease-free survival [2, 16]: 0.81 (0.68, 0.98)
- prolongation of disease-free survival (DFS) ([3]; NSABP B42, extended letrozole therapy compared to the placebo group (Mamounas et al., 2019)): no statistically significant prolongation
- reduction in distant recurrence (DR) in the letrozole arm ([3]; NSABP B42, extended letrozole vs placebo (Mamounas et al., 2019)): 28%
